Reference: patent US20060074109A1, “Use of inhibitors of 24-hydroxylase in the treatment of cancer” (Sapphire Therapeutics, Inc., priority 2004, published 2006)
Like-named read-outs stand apart in the source and are kept apart here.

Experiments:
[1] = test system: 24OHase mRNA in OVCAR-3 cells; assay: Quantitative RT-PCR of 24OHase mRNA; type: cell-based, human; conditions: 100 nM
Description: Ethanol was used as a vehicle, and it was also added to the control cells. For RNA extraction, the cells were collected 4, 6 and 24 hr after the treatment with vitamin D compound or vehicle. RNA extractions were done with TRIZOL reagent (GIBCO Invitrogen Corporation, Paisley, UK). The integrity of RNA samples was confirmed on gel electrophoresis. […] The reactions for 24-hydroxylase were performed in the LightCycler instrument (Roche Diagnostics, Basel, Switzerland) from 300 ng total RNA. PBGD (human porphobilinogendeaminase) mRNA was used as an […] control. […] Nucleotides, Tth DNA polymerase (DNA polymerase and reverse transcriptase activity), SYBR Green I and reaction buffer were included in the LightCycler-RNA Master SYBR Green I kit (Roche Diagnostics). […] Cell. […] Detection of fluorescent product was performed at the end of the extension step of each cycle. To verify the specific products, melting curve analysis and gel electrophoresis were done. The data were quantified by the Fit Points method with LightCycler Data Analysis software. […] Hormone treatments and RT-PCR were done twice.

UT-OC-1 cells = assay: Cell growth assay, crystal violet, 11 days; type: cell-based, human; conditions: 11 days
Description: (§1) The human ovarian adenocarcinoma cell line, OVCAR-3 (ATCC, Manassas, Va.) was maintained, as recommended by the supplier, in RPMI 1640 medium (Sigma Aldrich, St. Louis, Mo.) supplemented with 10% FBS, 10 μg/ml insulin, 0.25% glucose and antibiotics (100 IU/ml penicillin, 100 μg/ml streptomycin). Human ovarian adenocarcinoma cell lines UT-OC-1, UT-OC-2, UT-OC-3, UT-OC-4, UT-OC-5 (Grenman, S., Engblom, P., Rantanen, V., Klemi, P. and Isola, J., “Cytogenetic Characterization of Five New Ovarian Carcinoma Cell Lines,” Acta Obstet. Gynecol. Scand., 76:83 (1997)) and SK-OV-3 and a human keratinocyte cell line HaCaT were grown in DMEM (Sigma Aldrich) with 10% FBS and antibiotics (100 IU/ml penicillin, 100 μg/ml streptomycin), and monkey kidney COS cells were maintained in DMEM/F12 (Sigma Aldrich) with 5% FBS. All cell lines were kept at 37° C. in a humidified 95% air/5% CO2 incubator.
(§2) When OVCAR-3 cells were on the logarithmic growth phase (70% confluent) the growth assay was started. For cell growth assay, 2,000 cell/200 μl/well were plated on 96-well culture plates. […] Ethanol was used as a vehicle, and it was also included in the control. The medium containing ethanol vehicle and/or hormones were changed to a fresh one every third day. Cell growth samples were taken 0, 1, 3, 5, 7, 9 and 11 days after the treatment.
(§3) Relative cell numbers were quantified as described previously (Kueng W, Silber E, Eppenberger U. Quantification of cells cultured on 96-well plates. Anal. Biochem., 182:16-9 (1989)). Cells were fixed on the bottom of the wells by addition of 10 μl of 11% glutaraldehyde solution in 0.1% phosphate buffer to 100 μl of medium. The plate was shaken 500 cycles/min for 15 min, washed 3 times by submersion in de-ionised water and air-dried. Fixed cells were stained with 0.1% solution of crystal violet dissolved in de-ionised water. After 20 min incubation, excess dye was removed by carefully washing with de-ionised water. The plate was air-dried prior to a bound dye solubilisation in 100 μl of 10% acetic acid. Relative cell number was given as absorbance units by measuring the optical density (590 nm) from each well using Victor 1420 multilabel counter (Wallac, Turku, Finland). Six determinations were used to calculate the mean optical density ±SD in each concentration at each time point. The absorbance value of day 0 (an overnight culture of 2,000 cells/well) was set as 0 by subtracting it from each value obtained from adjacent time-point measurements (days 1-11), and based on these values growth curves were created. Experiments were repeated 3-5 times. Day 11 was used to compare the effect of hormone treatments and 24OHase inhibitor. Statistical analyses were done using Student's t-test.
(§4) Cell growth samples were obtained after 11 days treatment.

UT-OC-4 cells = assay: Cell growth assay, crystal violet, 11 days; type: cell-based, human; conditions: 11 days
Description: as §1, §2, §3, §4

[2] = test system: DU145 prostate cancer cells; assay: Cell growth, methylene blue uptake (Experiment VI); type: cell-based; conditions: calcitriol alone, compared with OVCAR-3
Description: (§5) Culture conditions were the same as for Experiment I. Cell growth was measured using uptake of methylene blue (0.5% in 50% ethanol), followed by air drying and release of the dye in 1% sodium N-lauroyl sarcosine in PBS.

[3] = test system: CWR22Rv-1 prostate cancer cells; assay: Cell growth, methylene blue uptake (Experiment VI); type: cell-based; conditions: calcitriol alone, compared with OVCAR-3
Description: as §5

[4] = test system: PC3 prostate cancer cells; assay: Cell growth, methylene blue uptake (Experiment VI); type: cell-based; conditions: calcitriol alone, compared with OVCAR-3
Description: as §5

[5] = test system: OVCAR-3 ovarian cancer cells; assay: Cell growth, methylene blue uptake (Experiment VI); type: cell-based, human; conditions: calcitriol alone
Description: as §5

[6] = test system: RARγ mRNA in UT-OC-1 cells; assay: RPA and quantitative RT-PCR of receptor mRNA; type: cell-based, human; conditions: 24 hour
Description: (§6) Briefly, ^32P-labelled ([α-^32P]UTP, Amersham Biosciences, Buckinghamshire, UK) RNA-probes were synthesised using in vitro transcription reaction (In vitro transcription reaction kit, Pharmingen, San Diego, Calif.) using two different template sets.
(§7) RPLP0 was used as reference gene.

[7] = test system: RARα mRNA in SK-OV-3 cells; assay: RPA and quantitative RT-PCR of receptor mRNA; type: cell-based, human; conditions: 24 hour
Description: as §6, §7

[8] = test system: RARγ mRNA in SK-OV-3 cells; assay: RPA and quantitative RT-PCR of receptor mRNA; type: cell-based, human; conditions: 24 hour
Description: as §6, §7

OVCAR-3 cells = assay: Cell growth assay, crystal violet, 11 days; type: cell-based, human; conditions: 11 days; for inhibition at 0.1 µM: 100 nM
Description: as §1, §2, §3
The cell growth response was determined as described in Experiment I. Briefly, cells were treated with indicated hormone concentrations or combinations of hormone and 24OHase inhibitor (VID400) for 11 days. The growth medium and hormones were changed to a fresh one every third day. After the treatment period, cells were fixed, stained with crystal violet, and the optical density (590 nm) was determined. The cell growth is presented as a percentage of ethanol-treated cells. The values represent the mean of 3 separate experiments ±SD. (*p<0.05, **p<0.001, ***p<0.0001, Student's t-test).
as §4

SK-OV-3 cells = assay: Cell growth assay, crystal violet, 11 days; type: cell-based, human; conditions: alone (1 or 10 μM)
Description: as §1, §2, §3, §4

[9] = test system: AIB1 mRNA in OVCAR-3 cells; assay: RPA of nuclear receptor coregulator mRNA; type: cell-based, human; conditions: 10 μM, 24 hour
Description: Briefly, ^32P-labelled ([α-^32P]UTP, Amersham Biosciences, Buckinghamshire, UK) RNA-probes were synthesised using in vitro transcription reaction (In vitro transcription reaction kit, Pharmingen, San Diego, Calif.) using two different template sets. […] A coregulator set produces probes for NCoR (360 bp), SMRT (310 bp), pCAF (267 bp), CBP (234 bp), TIF2 (200 bp), AIB1 (179 bp), SRC-1a (145 bp) and −1e (160 bp) and p300 (127 bp); 18S (80 bp) was used as loading control with each probe set.

[10] = test system: RARβ mRNA in SK-OV-3 cells; assay: RPA and quantitative RT-PCR of receptor mRNA; type: cell-based, human; conditions: 10 μM, 24 hour
Description: as §6, §7

[11] = test system: VDR mRNA in UT-OC-1 cells; assay: RPA and quantitative RT-PCR of receptor mRNA; type: cell-based, human; conditions: 24 hour
Description: as §6, §7

[12] = test system: RARβ mRNA in OVCAR-3 cells; assay: RPA and quantitative RT-PCR of receptor mRNA; type: cell-based, human; conditions: 10 μM, 24 hour
Description: as §6, §7

[13] = test system: 24OHase mRNA in ovarian cancer cell lines; assay: RPA and RT-PCR of 24OHase induction, all cell lines; type: cell-based, human; conditions: 100 nM, 24 h, every cell line
Description: as §6, §7

[14] = test system: 24OHase mRNA in UT-OC-5 cells; assay: RPA and RT-PCR of 24OHase induction; type: cell-based, human; conditions: 24 h
Description: as §6, §7

24-hydroxylase = target: T1, 24-hydroxylase (Homo sapiens, UniProt Q07973); conditions: Kahraman et al., J. Med. Chem. 47:6854-6863 (2004); cited from earlier work
T1 sequence (Q07973 36-514): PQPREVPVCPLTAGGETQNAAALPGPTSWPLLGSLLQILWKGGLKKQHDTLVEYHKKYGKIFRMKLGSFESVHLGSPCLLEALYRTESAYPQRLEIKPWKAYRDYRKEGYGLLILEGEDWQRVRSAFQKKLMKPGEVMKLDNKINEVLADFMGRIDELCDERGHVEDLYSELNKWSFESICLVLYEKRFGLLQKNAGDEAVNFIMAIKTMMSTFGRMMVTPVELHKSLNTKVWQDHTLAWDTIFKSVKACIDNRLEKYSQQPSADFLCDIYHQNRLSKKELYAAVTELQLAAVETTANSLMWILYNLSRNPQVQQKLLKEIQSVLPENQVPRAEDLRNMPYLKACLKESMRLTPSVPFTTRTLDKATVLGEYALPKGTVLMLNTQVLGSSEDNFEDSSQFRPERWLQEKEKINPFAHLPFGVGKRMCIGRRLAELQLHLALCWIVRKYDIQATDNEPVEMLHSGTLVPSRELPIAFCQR

[15] = Homo sapiens, OVCAR-3, 264 h, read-out: inhibited growth compared to the control

Row | SMILES | induction of 24OHase mRNA expression ([1]; 6 hr treatment) [fold] | induction of 24OHase mRNA expression ([1]; 24 hr treatment) | effect on cell growth (UT-OC-1 cells; 100 nM alone) | effect on cell growth (UT-OC-4 cells; 100 nM alone) | up regulation of RARγ compared to control ([6]; 100 nM) [%] | RARα expression ([7]; 100 nM) | increase of RARγ compared to control ([8]; 100 nM) [%] | inhibition at 0.1 µM (OVCAR-3 cells; [15]) [%] | effect on cell growth (UT-OC-1 cells; 10 μM alone) | effect on cell growth (UT-OC-4 cells; 10 μM alone) | effect on cell growth (SK-OV-3 cells) | AIB1 expression [9] | RARβ expression [10] | up regulation of RARγ compared to control ([6]; 10 μM) [%] | RARα expression ([7]; 10 μM) | increase of RARγ compared to control ([8]; 10 μM) [%] | VDR expression ([11]; 10 μM) | RARβ expression [12] | inhibitory potency for 24-hydroxylase (24-hydroxylase) | also measured
1 | C=C1/C(=C\C=C2/CCC[C@]3(C)[C@@H]([C@H](C)CCCC(C)(C)O)CC[C@@H]23)C[C@@H](O)C[C@@H]1O [1,25(OH)2D3, calcitriol] | 650 | 1,100 fold | did not inhibit the cell growth | did not restrain cell growth | 91±81 | 186±8 % of control | 78±12 | 74 |  |  |  |  |  |  |  |  |  |  |  | effect on cell growth [2]: less pronounced; effect on cell growth [3]: less pronounced; effect on cell growth [4]: less pronounced; effect on cell growth [5]: inhibited cell growth in a concentration-dependent manner; stimulated growth compared to the control (OVCAR-3 cells; 0.1 nM): 14%; effect on the cell growth (OVCAR-3 cells; 1 nM alone, Experiment IV): did not have an effect on the cell growth; effect on the cell growth (OVCAR-3 cells; 1 nM, Experiment I): did not have an effect on the cell growth; inhibition at 0.01 µM (OVCAR-3 cells; Homo sapiens, OVCAR-3, 264 h, 10 nM alone, Experiment IV, read-out: growth inhibition compared to the control): 26%; inhibition at 0.01 µM (OVCAR-3 cells; Homo sapiens, OVCAR-3, 264 h, 10 nM, Experiment I, read-out: inhibited growth compared to the control): 8%
2 | CC1=C(/C=C/C(C)=C\C=C\C(C)=C\C(=O)O)C(C)(C)CCC1 [9-CRA, 9-cis retinoic acid] |  |  |  |  |  |  |  |  | inhibited cell growth with equal magnitude | inhibited UT-OC-4 cell growth | inhibited the growth of SK-OV-3 cells | 171 (±5) % of ethanol-treated control | 345±17 % of control | 44±15 | 195±1 % of control | 119±52 | 58±25 % of control | 276±68 % of control |  | 
3 | CC1=C(/C=C/C(C)=C/C=C/C(C)=C/C(=O)O)C(C)(C)CCC1 [ATRA, all-trans-retinoic acid] |  |  |  |  |  |  |  |  | inhibited cell growth with equal magnitude | inhibited UT-OC-4 cell growth | inhibited the growth of SK-OV-3 cells | 160 (±10) % of ethanol-treated control | 657±30 % of control | 83±66 | 293±70 % of control | 119±19 | 53±11 % of control | 214±127 % of control |  | 
4 | C=C1/C(=C\C=C2/CCC[C@]3(C)[C@@H]([C@H](C)/C=C/C=C/C(O)(CC)CC)CC[C@@H]23)C[C@@H](O)C[C@@H]1O [EB 1089] | 600 | 1,000 fold | did not inhibit the cell growth | did not restrain cell growth | 47±7 | 134±10 % of control | 51±7 | 84 |  |  |  |  |  |  |  |  |  |  |  | induction of 24OHase expression compared with 1,25(OH)2D3 [13]: more effective in inducing 24OHase expression; VDR expression ([11]; 100 nM): 47±8 % of control; 24OHase induction relative to 100 nM 1,25(OH)2D3 [14]: more than two-fold stronger inducer; inhibition at 0.001 µM (OVCAR-3 cells; Homo sapiens, OVCAR-3, 264 h, 1 nM, read-out: inhibited growth compared to the control): 73%; effect on cell proliferation (OVCAR-3 cells; alone (10 or 100 nM), Experiment V): markedly inhibited the proliferation
5 | C=C1/C(=C\C=C2/CCCC3(C)C2CC[C@@H]3[C@H](C)CCS(=N)(=O)c2ccc(F)cc2)C[C@@H](O)C[C@@H]1O (stereo partly shown) [Formula VI] |  |  |  |  |  |  |  |  |  |  |  |  |  |  |  |  |  |  | Only slightly less potent | 
6 | C=C1/C(=C\C=C2/CCCC3(C)C2CC[C@@H]3[C@H](C)CCS(=N)(=O)c2ccccc2)C[C@@H](O)C[C@@H]1O (stereo partly shown) [Formula V] |  |  |  |  |  |  |  |  |  |  |  |  |  |  |  |  |  |  | most potent compound | 
